We go through nine molecules from PubChem BioAssay AID1918999 (Molecular Pharmacology Branch, DTP, NCI, 2023).

This experiment concerns 556581-035-R-J1-PDC complex spheroid growth. Briefly: Anticancer human tumor 556581-035-R-J1-PDC patient-derived ovarian carcinoma cell line growth inhibition [AhR]. Conditions: for viability, T/C: stronger effect = lower value; for IC50: curve of compound. From the text:
Multicellular complex tumor spheroid response to aryl hydrocarbon receptor antagonists in combination with a variety of drugs and investigational agents in selected tumor cell lines
The current study was undertaken to assess response to aryl hydrocarbon receptor antagonists in combination with standard-of-care drugs and investigational agents in solid tumor complex spheroid models. Complex spheroids include a stromal component modeled by human endothelial cells (HUVEC) and fibroblasts modeled by human mesenchymal stem cells (MSCs). The concentration ranges selected for each drug and investigational agent were based upon clinically achievable concentrations if the clinical Cmax of the agent was known.
Compounds. The drugs and investigational agents: BAY 2416964 (NSC825713), GNF351 (NSC835774), CH-223191 (NSC835775), CPI-455 (NSC825282), aza-TdCyd (NSC777586), decitabine (NSC127716), belinostat (NSC758774), entinostat (NSC756642), pevonedistat (NSC761192), tazemetostat (NSC777109), talazoparib (NSC765396), olaparib (NSC753686), selinexor (NSC780203), nedisertib (M3814, NSC802822), bortezomib (NSC756655), venetoclax (NSC766270), doxorubicin (NSC123127), elimusertib (BAY189344, NSC800525), ceralasertib (AZD6738, NSC777638), TAK-243 (NSC785004), alisertib (NSC759677), etoposide (NSC141540), topotecan (NSC609699), eribulin (NSC707389), gemcitabine (NSC613327), carboplatin (NSC241240), cisplatin (NSC119875), and SN-38 (NSC673596) were obtained from the National Cancer Institute (NCI) Developmental Therapeutics Program Chemical Repository (32). The FDA-approved anticancer drug set is available from the Developmental Therapeutics Program at https://dtp.cancer.gov/organization/dscb/obtaining/available plates.htm. […] The stock solutions were prepared in dimethyl sulfoxide (DMSO, Sigma-Aldrich, St. Louis, MO, cat. D2650), except for the platinum compounds which were prepared in saline (Quality Biological, Gaithersburg, MD, cat. 114-055-101), at 800-fold the tested concentration and stored at -70 degrees C prior to their use. All drugs and investigational agents were tested over a range starting from a high concentration at or near the clinical Cmax and decreasing in half-log increments. If the clinical Cmax for an agent had not been determined, the highest concentration tested was 10 microM (Table 1).
Cell Culture. All cells were maintained in an incubator at 37 degrees C and 5% CO2 with 95% humidity. The PDC lines were cultured according to standard operating procedures established by the NCI PDMR (https://pdmr.cancer.gov). Briefly, all PDCs were thawed and cultured in Matrigel-coated flasks prepared with a working solution of 1X Ham's F-12 nutrient mix, without supplementation (Invitrogen, Waltham, MA, cat. 11765054), 100 U/mL penicillin-streptomycin (Invitrogen, cat. 15140122), and 2.5% Matrigel (Corning Inc., Corning, NY, cat. 354248) for the first three passages. All PDCs were cultured in complete DMEM/F-12 media containing advanced DMEM/F-12 (Invitrogen, cat. 12634028), 4.9% defined fetal bovine serum, heat inactivated (HyClone Laboratories Inc., Logan, UT, cat. SH30070.03HI), 389 ng/mL hydrocortisone (Sigma-Aldrich, cat. H4001), 9.7 ng/mL human EGF recombinant protein (Invitrogen, cat. PHG0313), 23.4 microg/mL adenine (Sigma-Aldrich, cat. A2786), 97.3 U/mL penicillin-streptomycin (Invitrogen, cat. 15140122), 1.9 mM L-glutamine (Invitrogen, cat. 25030081), and 9.7 microM Y-27632 dihydrochloride (Tocris Bioscience, Bristol, United Kingdom, cat. 1254). The PDCs were cultured in complete DMEM/F12 media without 10 microM Y-27632 dihydrochloride for at least two passages prior to the screen. The established cell lines NCI-H1341 and […] were cultured in DMEM/F-12, HEPES (Invitrogen, cat. 11330032), 5% defined fetal bovine serum (HyClone Laboratories Inc., cat. SH30070.03), ITS premix universal culture supplement [insulin (5 microg/mL), transferrin (5 microg/mL), and selenious acid (5 ng/mL)] […]

Values joined by “and” are separate entries in the source; they are usually repeats but may differ in a detail not shown here. Identical values can stand only once.
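Throughout, for viability, T/C: compound exposure lasted 7 days.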

One may read the viability, T/C as the ratio of treated to control. The term IC50 denotes the concentration at which inhibition is half-maximal. Turning to `CC(C)CC(NC(=O)C(Cc1ccccc1)NC(=O)c1cnccn1)B(O)O` (stereo not drawn), the IC50 was 5.87 nM and 5.61 nM and 4.98 nM. Moreover, the viability, T/C (compound 0.000949 µM) is 105% and 95.7% and 87.9%. For the same molecule, where the note is “compound 0.003 µM”, the viability, T/C is 101% and 97.8% and 87.1%. Further, for the setting “compound 0.00949 µM”, the viability, T/C was 13.2% and 10.6% and 2.65%. Further, the viability, T/C (compound 0.03 µM) is 1.02% and 0.36% and 1.1%. For the setting “compound 0.0949 µM”, the viability, T/C was 0.22% and 0.29% and 0.24%. Besides, the viability, T/C (compound 0.3 µM) is 0.28% and 0.29% and 0.34%.

For the molecule `CC1(C)CCC(CN2CCN(c3ccc(C(=O)NS(=O)(=O)c4ccc(NCC5CCOCC5)c([N+](=O)[O-])c4)c(Oc4cnc5[nH]ccc5c4)c3)CC2)=C(c2ccc(Cl)cc2)C1`, the half-inhibitory concentration (IC50) was above 10000 nM. The viability, T/C (compound 0.0316 µM) was 98.3% and 100% and 107%. The viability, T/C (compound 0.1 µM) is 102% and 104% and 108%. For the same molecule, the viability, T/C (compound 0.316 µM) was 88.4% and 106% and 96.5%. The viability, T/C (compound 1 µM) is 90.5% (2×) and 107%. In addition, the viability, T/C (compound 3.16 µM) was 97.1% and 101% and 97.2%. In addition, for the setting “compound 10 µM”, the viability, T/C was 75% and 79.2% and 73.8%.

Take `CC1COCCN1c1cc(-c2ccnn2C)c2ccnc(-c3ccn[nH]3)c2n1` (stereo not drawn): the IC50 is 670 nM and 897 nM and 827 nM. For the setting “compound 0.00316 µM”, the viability, T/C was 97.2% and 110% and 109%. The viability, T/C (compound 0.01 µM) was 101% and 105% and 102%. Moreover, the viability, T/C (compound 0.0316 µM) was 105% and 95.4% and 98.4%. The viability, T/C (compound 0.1 µM) is 78.3% and 80.3% and 80.1%. In addition, the viability, T/C (compound 0.316 µM) is 58.9% (2×) and 65.4%. For the same molecule, the viability, T/C (compound 1 µM) is 45.2% and 48.2% and 48.4%.

Consider `CCN(c1cc(-c2ccc(CN3CCOCC3)cc2)cc(C(=O)NCc2c(C)cc(C)[nH]c2=O)c1C)C1CCOCC1`, for which the IC50 is above 3000 nM. Further, the viability, T/C (compound 0.00949 µM) is 98.6% and 100% and 96.3%. The viability, T/C (compound 0.03 µM) was 110% and 102% and 118%. Moreover, the viability, T/C (compound 0.0949 µM) is 97.2% and 104% and 89.5%. The viability, T/C (compound 0.3 µM) was 96.6% and 91% and 102%. Further, the viability, T/C (compound 0.949 µM) is 96.9% and 87.3% and 106%. Moreover, under “compound 3 µM”, the viability, T/C is 102% and 91.7% and 108%.

As to `CC[C@@]1(O)C(=O)OCc2c1cc1n(c2=O)Cc2cc3c(CN(C)C)c(O)ccc3nc2-1`, the IC50 is > 100 nM and 86.9 nM. In addition, the viability, T/C (compound 0.000316 µM) is 101% and 94.3% and 103%. Further, the viability, T/C (compound 0.001 µM) was 103% and 90.5% and 99.5%. Moreover, the viability, T/C (compound 0.00316 µM) was 91.3% and 91.8% and 95.9%. Where the note is “compound 0.01 µM”, the viability, T/C was 87.9% and 84.7% and 81.2%. Besides, where the note is “compound 0.0316 µM”, the viability, T/C was 77.2% and 66.1% and 69.9%. Further, where the note is “compound 0.1 µM”, the viability, T/C is 54.1% and 51.6% and 47%.

For `CCc1c2c(nc3ccc(O)cc13)-c1cc3c(c(=O)n1C2)COC(=O)[C@]3(O)CC`, the IC50 was 13.6 nM and 21.3 nM and 13.7 nM. Further, the viability, T/C (compound 0.000949 µM) was 89.1% and 96% and 90.5%. The viability, T/C (compound 0.003 µM) was 75% and 95% and 73.6%. Moreover, the viability, T/C (compound 0.00949 µM) is 54.5% and 61% and 53.9%. In addition, the viability, T/C (compound 0.03 µM) was 39.9% and 46% and 40.5%. Further, the viability, T/C (compound 0.0949 µM) is 17.3% and 25.3% and 22.7%. Where the note is “compound 0.3 µM”, the viability, T/C is 10.3% and 15.8% and 10.7%.

With `COc1cc(C2c3cc4c(cc3C(OC3OC5COC(C)OC5C(O)C3O)C3COC(=O)C23)OCO4)cc(OC)c1O` (stereo not drawn), the IC50 was 7210 nM and 8060 nM and 9560 nM. For the same molecule, the viability, T/C (compound 0.0316 µM) was 104% and 107% and 99.2%. The viability, T/C (compound 0.1 µM) was 103% (2×) and 100%. For the same molecule, where the note is “compound 0.316 µM”, the viability, T/C was 84.9% and 82.3% and 74.7%. The viability, T/C (compound 1 µM) was 78.2% and 84.1% and 76.3%. The viability, T/C (compound 3.16 µM) was 62.1% and 66.4% and 67.5%. For the same molecule, the viability, T/C (compound 10 µM) is 45.1% and 44.2% and 47.1%.

Consider `COc1cc(Nc2ncc3c(n2)-c2ccc(Cl)cc2C(c2c(F)cccc2OC)=NC3)ccc1C(=O)O`, for which the IC50 was above 10000 nM. For the same molecule, the viability, T/C (compound 0.0316 µM) was 81.1% and 79.8% and 91.3%. In addition, the viability, T/C (compound 0.1 µM) was 75% and 75.9% and 76%. Also, the viability, T/C (compound 0.316 µM) is 68.9% and 62.2% and 64.4%. Also, the viability, T/C (compound 1 µM) is 79.5% and 64.8% and 63%. Also, for the setting “compound 3.16 µM”, the viability, T/C is 62.2% and 61.8% and 58.2%. Further, the viability, T/C (compound 10 µM) is 54% and 52% and 52.1%.

In the case of `COc1cccc2c1C(=O)c1c(O)c3c(c(O)c1C2=O)CC(O)(C(=O)CO)CC3OC1CC(N)C(O)C(C)O1` (stereo not drawn), the IC50 was 388 nM and 386 nM and 366 nM. The viability, T/C (compound 0.0316 µM) was 90.7% and 86.7% and 84.5%. Besides, where the note is “compound 0.1 µM”, the viability, T/C is 89% and 78.2% and 76.5%. Besides, the viability, T/C (compound 0.316 µM) was 58.8% and 57.2% and 55%. For the same molecule, the viability, T/C (compound 1 µM) is 9.14% and 19.1% and 19.5%. For the same molecule, the viability, T/C (compound 3.16 µM) was 1.93% and 3.75% and 4.65%. For the same molecule, the viability, T/C (compound 10 µM) was 3.8% and 2.01% and 3.67%.
